# Tests used:
# [1] = system: H1975 cells (EGFR L858R/T790M); assay: Inhibitory activity on cell proliferation, H1975; format: cell-based; conditions: Homo sapiens, NCI-H1975; H1975, 72 hours; read-out: Inhibitory activity on proliferation of cells (IC50, μM) H1975
# [2] = Determination of solubility in water (PBS 20 mM, pH 6.8); format: physicochemical; conditions: PBS buffer, aqueous buffer, thermodynamic from solid; pH 6.8, 20 mM PBS; read-out: Solubility (pH 6.8, g/mL)
# Outline: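 Compound suspension filtered (0.22 μm PVDF), diluted in 50% methanol/50% PBS, absorbance read by UV spectrophotometry. Solubility calculated from a standard curve of 0.01–0.05 mg/mL methanol-derived solutions (r > 0.998).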
# [3] = Pathological analysis of tumor-bearing mice after 14 consecutive days of administration; format: in vivo
# H1975 cell xenograft = H1975 cell xenograft tumor assay; format: in vivo, BALB/c nude mice; conditions: for tumor recurrence after administration was stopped for 1 month (FIG. 2): H1975 xenograft
# Method: Purpose of experiment: H1975 transplanted BALB/c nude mice were orally administered (PO) with a substance to be tested for 14 consecutive days. The body weight and tumor size of nude mice were observed and recorded.
# H1975 cells were obtained from Shanghai Institute of Materia Medica. […] Cells were fluid-changed and passaged for one time every 2-3 days and expanded. When the desired amount of cells was achieved, transplantation of cells was performed.
# (§1) 40 male BALB/c nude mice, aged 4-5 weeks and weighing 17-23 g, were purchased from Shanghai Bikai, placed in an animal room environment for 2-3 days, and then seeded with cells. Cell suspension was subcutaneously injected at forelimb of the nude mouse rich in capillaries, and each mouse was injected with 0.1 mL of cell suspension.
# (§2) Appropriate amount of a substance to be tested was weighed, suspended in 14 mL of DMSO-PEG400 saline solution (DMSO:PEG400:saline=1:30:69) respectively, formulated according to the following table, suspended or dissolved by ultrasonic wave, filled into vials and sealed, and reserved in a 4° C. refrigerator for further use.
# (§3) The length and width of a tumor and body weight of a mouse were recorded at least twice a week. The tumor size is calculated as V=0.5*length*width*width.
# EGFR-L858R/T790M = molecular target: T1, EGFR-L858R/T790M (Homo sapiens, UniProt P00533, L858R/T790M); assay: Kinase activity test (FRET), EGFR T790M/L858R; format: biochemical; conditions: EGFR T790M/L858R; read-out: Inhibitory activity of EGFR on kinase (IC50, nM) T790M/L858R
# T1 construct: purchased Invitrogen PV4879
# T1 sequence (P00533 25-1210 T790M/L858R): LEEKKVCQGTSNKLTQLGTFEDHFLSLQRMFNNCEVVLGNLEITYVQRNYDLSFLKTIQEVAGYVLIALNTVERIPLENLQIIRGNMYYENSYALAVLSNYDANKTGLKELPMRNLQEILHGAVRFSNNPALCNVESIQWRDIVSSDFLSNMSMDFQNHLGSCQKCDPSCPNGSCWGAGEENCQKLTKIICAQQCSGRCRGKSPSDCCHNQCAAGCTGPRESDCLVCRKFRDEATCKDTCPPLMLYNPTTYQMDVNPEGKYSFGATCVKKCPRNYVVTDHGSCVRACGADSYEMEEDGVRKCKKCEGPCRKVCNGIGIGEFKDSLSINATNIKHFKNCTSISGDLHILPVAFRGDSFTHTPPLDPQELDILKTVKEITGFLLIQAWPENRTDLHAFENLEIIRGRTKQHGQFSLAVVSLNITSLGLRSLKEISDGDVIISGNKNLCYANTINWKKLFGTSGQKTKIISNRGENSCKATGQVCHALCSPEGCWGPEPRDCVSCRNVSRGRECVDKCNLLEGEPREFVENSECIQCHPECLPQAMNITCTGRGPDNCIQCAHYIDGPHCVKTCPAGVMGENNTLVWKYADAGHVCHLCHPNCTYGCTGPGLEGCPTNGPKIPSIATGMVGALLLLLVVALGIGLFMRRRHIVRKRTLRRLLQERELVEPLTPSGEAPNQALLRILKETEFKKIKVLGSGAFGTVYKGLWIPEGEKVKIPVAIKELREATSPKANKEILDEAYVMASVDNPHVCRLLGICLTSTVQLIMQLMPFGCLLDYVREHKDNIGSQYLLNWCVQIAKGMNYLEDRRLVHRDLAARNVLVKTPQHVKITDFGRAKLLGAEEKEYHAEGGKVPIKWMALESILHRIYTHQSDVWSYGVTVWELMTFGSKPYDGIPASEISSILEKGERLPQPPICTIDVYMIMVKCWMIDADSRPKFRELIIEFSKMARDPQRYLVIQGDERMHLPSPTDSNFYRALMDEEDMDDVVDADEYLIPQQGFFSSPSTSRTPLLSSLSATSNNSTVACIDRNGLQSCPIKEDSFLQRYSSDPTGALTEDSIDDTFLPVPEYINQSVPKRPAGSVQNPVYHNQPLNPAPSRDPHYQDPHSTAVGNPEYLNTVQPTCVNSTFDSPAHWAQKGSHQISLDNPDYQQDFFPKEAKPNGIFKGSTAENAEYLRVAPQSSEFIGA
# Outline: (§4)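 FRET assay with coumarin/fluorescein-labelled poly(Glu, Tyr)4:1 peptide and ATP, compounds at 5.1×10^−11 to 1.0×10^−6 mol/L final. Kinase reaction 1.5 h at room temperature, then 1 h development cleaving unphosphorylated peptide.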
# Wild type EGFR = molecular target: T2, Wild type EGFR (Homo sapiens, UniProt P00533); assay: Kinase activity test (FRET), wild type EGFR; format: biochemical; conditions: wild type EGFR; read-out: Inhibitory activity of EGFR on kinase (IC50, nM) WT
# T2 construct: purchased Invitrogen PV3872
# T2 sequence (P00533 25-1210): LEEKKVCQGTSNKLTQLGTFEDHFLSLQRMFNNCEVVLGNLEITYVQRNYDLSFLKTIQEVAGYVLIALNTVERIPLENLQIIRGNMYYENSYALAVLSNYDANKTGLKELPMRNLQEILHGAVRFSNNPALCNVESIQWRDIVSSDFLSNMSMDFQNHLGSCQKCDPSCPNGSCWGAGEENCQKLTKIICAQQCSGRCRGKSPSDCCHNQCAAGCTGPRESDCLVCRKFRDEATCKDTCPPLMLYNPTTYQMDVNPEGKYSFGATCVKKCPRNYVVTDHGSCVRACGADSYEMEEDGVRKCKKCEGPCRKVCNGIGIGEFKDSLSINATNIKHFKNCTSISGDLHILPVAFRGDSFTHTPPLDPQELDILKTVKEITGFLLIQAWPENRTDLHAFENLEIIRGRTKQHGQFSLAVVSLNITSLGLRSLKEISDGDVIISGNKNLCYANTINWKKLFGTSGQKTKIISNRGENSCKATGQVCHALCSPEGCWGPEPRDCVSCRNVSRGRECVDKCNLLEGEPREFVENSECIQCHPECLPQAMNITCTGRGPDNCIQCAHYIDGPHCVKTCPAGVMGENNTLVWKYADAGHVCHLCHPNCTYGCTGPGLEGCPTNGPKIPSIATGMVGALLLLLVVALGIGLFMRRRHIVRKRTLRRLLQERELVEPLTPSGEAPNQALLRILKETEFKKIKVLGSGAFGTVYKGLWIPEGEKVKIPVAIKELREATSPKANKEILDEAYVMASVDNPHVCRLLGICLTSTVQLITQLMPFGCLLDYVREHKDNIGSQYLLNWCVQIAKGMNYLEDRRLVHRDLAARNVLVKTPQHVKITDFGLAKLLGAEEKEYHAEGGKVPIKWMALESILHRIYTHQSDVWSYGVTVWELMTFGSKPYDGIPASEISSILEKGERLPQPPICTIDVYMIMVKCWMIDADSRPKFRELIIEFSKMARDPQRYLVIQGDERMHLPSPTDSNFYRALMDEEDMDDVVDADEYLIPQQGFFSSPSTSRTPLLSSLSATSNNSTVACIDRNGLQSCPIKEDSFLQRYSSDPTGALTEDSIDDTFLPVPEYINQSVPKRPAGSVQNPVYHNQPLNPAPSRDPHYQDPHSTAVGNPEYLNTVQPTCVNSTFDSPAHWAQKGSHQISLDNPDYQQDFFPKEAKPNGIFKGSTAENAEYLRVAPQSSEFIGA
# Outline: as §4
# [4] = system: A431 cell xenograft (EGFR wild-type); assay: A431 cell xenograft tumor assay; format: in vivo, BALB/c nude mice; conditions: 25 mg/kg, oral, 14 days
# Method: Purpose of experiment: A431 xenograft tumor BALB/c nude mice were orally administered (PO) with a substance to be tested for 14 consecutive days. The body weight and tumor size of nude mice were observed and recorded.
# Cells were fluid-changed and passaged for one time every 2-3 days and expanded. When the desired amount of cells was achieved, transplantation of cells was performed.
# as §1
# as §2, with “sealed” for “sealed,”
# as §3
# [5] = system: A431 cells (EGFR wild type); assay: Inhibitory activity on cell proliferation, A431; format: cell-based; conditions: Homo sapiens, A-431; A431, 72 hours; read-out: Inhibitory activity on proliferation of cells (IC50, μM) A431
Structure (SMILES),IC50 [1] [µM],solubility [2] [µg/mL],"pathology, brain tissue (FIG. 5E) [3]","pathology, heart tissue (FIG. 5G) [3]","pathology, intestine tissue (FIG. 5A) [3]","pathology, kidney tissue (FIG. 5F) [3]","pathology, liver tissue (FIG. 5C) [3]","pathology, lung tissue (FIG. 5B) [3]","pathology, tumor tissue (FIG. 5D) [3]",effect on tumor size in H1975 xenograft (FIG. 2) (H1975 cell xenograft; 25 mg/kg),"efficacy in H1975 xenograft (FIG. 2), 25 mg/kg versus AZD9291 25 mg/kg (H1975 cell xenograft; 25 mg/kg)",tumor recurrence after administration was stopped for 1 month (FIG. 2) (H1975 cell xenograft; 25 mg/kg),"efficacy in H1975 xenograft (FIG. 2), 10 mg/kg versus CO-1686 50 mg/kg (H1975 cell xenograft; Compound 14 10 mg/kg, CO-1686 50 mg/kg)","efficacy in H1975 cell xenograft model (FIG. 1) (H1975 cell xenograft; orally administered for 14 days, versus CO-1686)",IC50 (EGFR-L858R/T790M) [nM],IC50 (Wild type EGFR) [nM],tumor size in EGFR wild-type A431 cell xenograft model (FIG. 3) [4],selectivity on wild-type EGFR in A431 xenograft (FIG. 3) ([4]; versus afatinib),IC50 [5] [µM],melting point [°C]
"C=CC(=O)Nc1cccc(-n2c(=O)c(-c3ccccc3)nc3cnc(Nc4ccc(N5CCN(C)CC5)cc4OC)nc32)c1 [Compound 14, N-(3-(2-((2-methoxy-4-(4-methyl-1-piperazinyl)phenyl)amino)-7-oxo-6-phenyl-8(7H)-pteridinyl)phenyl)acrylamide]",0.014,9.7,"normal tissue structure, no pathological change",moderate expansion of myocardial fiber gap in the tissue,mucosal inflammatory cell focal infiltration,"1) a part of glomerular wall in the tissue thickening, as shown by the black arrow, and 2) no significant abnormality","1) the extensive hepatic sinusoids dilatation in the entire tissue, as indicated by the black arrow, and 2) visible mild fatty degeneration in liver tissue, with small droplets of lipid","normal tissue structure, no pathological change",moderate necrosis of cells in the entire tissues,effectively reduce the size of a tumor,comparable efficacy to AZD9291,the tumor did not recur,better efficacy over CO-1686,superior efficacy over CO-1686,1,10.5,the size of the tumor did not substantially change,significantly better than afatinib,4.18,
"C=CC(=O)Nc1cc(Nc2nccc(-c3cn(C)c4ccccc34)n2)c(OC)cc1N(C)CCN(C)C [AZD9291, reference compound]",[…],,"normal tissue structure, no pathological change","1) moderate expansion of myocardial fiber gap in the tissue, as indicated by the black arrow, 2) vacuoles formed in the cytoplasm of the myocardial fibers",inflammatory cell focal infiltration seen in tissue,"1) extensive kidney tubular lumen expansion in tissue, as shown by the black arrow, 2) part of glomerular wall thickening, as shown by the yellow arrow, and 3) visible transparent tube","1) more severe liver injury, extensive hepatic sinusoids dilatation, as indicated by the black arrow, and 2) visible necrosis in liver tissue","pulmonary congestion, interstitial edema",moderate necrosis of cells in the entire tissues,effectively reduce the size of a tumor,,[…],,,,,the size of the tumor did not substantially change,,[…],
"C=CC(=O)Nc1cccc(-n2c(=O)c(-c3ccc(F)c(F)c3)nc3cnc(Nc4ccc(N5CCN(C)CC5)cc4OC)nc32)c1 [Compound 56, N-(3-(6-(3,4-difluorophenyl)-2-((2-methoxy-4-(4-methyl-1-piperazinyl)phenyl)amino)-7-oxo-8(7H)pteridinyl)phenyl)acrylamide]",0.228,< 10,,,,,,,,,,,,,1.7,1.6,,,1.2,> 300

# Reference: patent publication US11306095B2 (EAST CHINA UNIVERSITY OF SCIENCE AND TECHNOLOGY, priority 2015, dated 2022)
